Earlier results in US6087327A (priority 1998, dated 2000).

System: neurotransmitter release process

SMILES: Nc1ccncc1 [aminopyridine]
- reversal of inhibition produced by botulinum neurotoxin A: more effective
